# Columns and labels:
# caspase-3 in BJ-1 cells = assay: Caspase-3 ELISA in treated BJ-1 cells; format: cell-based, human; details: BJ-1 cells treated at the IC50 value, mean ± SE, n = 3
# Procedure: (§1) Following the treatment of HepG-2, Caco-2, A549, and BJ-1 cells with the SB-CuO-NPs at their respective IC50 values, as illustrated in Figure 9 and detailed in Table 5, an assessment of the activities of the caspase-3 and Bcl-2 enzymes was conducted in the treated cells. […] This mechanism ultimately triggers apoptosis. Additionally, the increased activity of caspase-3 results in a decrease in the expression of cyclin D1 and CDK-2 mRNA, thereby promoting the arrest of the G1 phase of the cell cycle. Othman et al. further noted that the biosynthesized M-NPs facilitate apoptosis by inhibiting the expression of the PI3K/AKT and Ras/Raf/ERK protein signaling pathways.
# (§2) Invitrogen Corporation, following the manufacturer's instructions.
# DPPH radical scavenging = details: mean ± SE, n = 3
# Procedure: The 1,1-Diphenyl-2-picryl-hydrazyl (DPPH) radical scavenging activities were evaluated using the method described by Rahman et al. An antioxidant substance capable of donating a hydrogen atom to a solution containing DPPH- can reduce the stable free radical, causing the solution to change color from violet to pale yellow.
# The remaining DPPH- radical was quantified by measuring the intensity of a light-purple colored DPPH methanol solution in the visible range at 518 nm using a spectroscopic method. Two mill iliters of a DPPH solution (100 µ M) in ethanol were mixed with 2 mL of the sample (at each concentration). The reaction mixture for each concentration was thoroughly vortexed and then incubated in the dark at room temperature for 30 minutes. The absorbance was then measured spectrophotometrically at 518 nm against a blank (ethanol). For the control, 2 mL of ethanol was added instead of the sample and run simultaneously with the test.
# Ascorbic acid was used at the same concentrations as a positive control. P ercent […]
# inhibition of the DPPH free radical was calculated. […]
# COX-1 = target: T1, COX-1 (Ovis aries, UniProt P05979); assay: COX-1 inhibition assay (Cayman kit); format: biochemical, ovine; details: mean ± SE, n = 3
# T1 construct: purchased Cayman 560131
# T1 sequence (P05979 25-600): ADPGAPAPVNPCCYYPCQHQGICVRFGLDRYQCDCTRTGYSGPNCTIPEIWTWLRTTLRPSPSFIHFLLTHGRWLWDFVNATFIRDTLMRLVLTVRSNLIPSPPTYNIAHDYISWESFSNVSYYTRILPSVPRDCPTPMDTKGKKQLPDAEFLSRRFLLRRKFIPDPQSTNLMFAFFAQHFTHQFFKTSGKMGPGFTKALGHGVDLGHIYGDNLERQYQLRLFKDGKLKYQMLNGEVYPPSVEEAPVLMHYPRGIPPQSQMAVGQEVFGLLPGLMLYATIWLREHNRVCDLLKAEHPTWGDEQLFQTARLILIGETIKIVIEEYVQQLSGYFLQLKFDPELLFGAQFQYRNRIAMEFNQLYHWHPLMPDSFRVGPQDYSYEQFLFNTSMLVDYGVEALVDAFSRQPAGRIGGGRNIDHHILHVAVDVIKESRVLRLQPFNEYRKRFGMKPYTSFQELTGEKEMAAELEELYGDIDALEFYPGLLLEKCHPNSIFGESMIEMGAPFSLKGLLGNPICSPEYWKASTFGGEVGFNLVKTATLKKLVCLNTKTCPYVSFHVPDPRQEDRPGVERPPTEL
# [1] = target: bovine serum albumin (BSA) (Bos taurus, UniProt P02769); assay: Inhibition of protein denaturation (anti-arthritic); details: read-out: Protein Denaturation Inhib. (%)
# Procedure: 3.5. Anti-arthritic activity
# In the anti-arthritic activity study, this assay involved determining the percentage of […]
# anti-inflammatory drug, as prepared according to Meera et al. The protein denaturation percentage was measured by mixing 0.5mL of the test control solution, prepared by combining 0.45 mL of bovine serum albumin (BSA) (5% w/v aqueous solution) with 0.05 mL of distilled water. Then, 0.05 mL of the test solution was added to 0.45 mL of distilled water to form the product control (0.5 mL). The […]
# pH value in all prepared solutions was adjusted to 6.3 using HCl (1N). All the samples were incubated at 37 °C for 20 min, and the temperature was then increased to 57 °C, maintaining the samples at that degree for 3 min. After cooling, 2.5 mL of phosphate buffer was added to the prepared solutions. The absorbance was […]
# protein denaturation inhibition can be calculated. Proteinase inhibitory activity was assessed by combining the test sample (1 mL) with a reaction mixture containing 0.06 mg trypsin dissolved in 1 mL of 20 mM Tris HCl buffer (pH 7.4). The mixture was then incubated for 5 minutes at 37°C, followed by the addition of 1 mL of casein (0.8% w/v). […] The cloudy suspension was then centrifuged, and the absorbance of the supernatant was measured at 210 nm against buffer as the blank. The percentage of proteinase inhibitory activity was then calculated. […]
# [2] = system: human colon cancer (Caco-2) cell line; assay: MTT cytotoxicity, Caco-2
# Bcl-2 in BJ-1 cells = assay: Bcl-2 ELISA in treated BJ-1 cells; format: cell-based, human; details: BJ-1 cells treated at the IC50 value, mean ± SE, n = 3
# Procedure: as §1, §2
# Bcl-2 in HepG-2 cells = assay: Bcl-2 ELISA in treated HepG-2 cells; format: cell-based, human; details: HepG-2 cells treated at the IC50 value, mean ± SE, n = 3
# Procedure: as §1, §2
# bovine serum albumin (BSA), sequence (P02769 25-607): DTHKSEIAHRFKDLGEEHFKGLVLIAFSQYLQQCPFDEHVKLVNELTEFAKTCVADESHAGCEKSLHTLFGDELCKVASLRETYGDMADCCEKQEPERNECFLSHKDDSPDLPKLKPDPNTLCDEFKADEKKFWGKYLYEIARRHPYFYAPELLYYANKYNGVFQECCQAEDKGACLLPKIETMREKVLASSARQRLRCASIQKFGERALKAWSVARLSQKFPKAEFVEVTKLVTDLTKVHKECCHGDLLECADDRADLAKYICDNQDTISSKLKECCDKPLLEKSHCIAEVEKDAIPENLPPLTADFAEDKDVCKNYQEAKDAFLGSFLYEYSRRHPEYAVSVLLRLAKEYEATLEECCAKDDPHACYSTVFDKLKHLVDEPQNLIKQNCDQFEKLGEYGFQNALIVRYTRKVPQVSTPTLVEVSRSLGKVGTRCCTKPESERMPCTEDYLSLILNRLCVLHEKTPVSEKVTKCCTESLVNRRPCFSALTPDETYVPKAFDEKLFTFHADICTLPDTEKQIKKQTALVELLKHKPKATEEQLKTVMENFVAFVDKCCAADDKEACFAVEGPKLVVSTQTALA
smiles,measurement,setting,value
Cc1nn(-c2ccccc2)c(Cl)c1C=NN=C1C(=O)Nc2ccccc21 [SB],Caspase-3,caspase-3 in BJ-1 cells,109.07 ± 0.18 pg/mL
same,Scavenging activity DPPH Inhib. (%),DPPH radical scavenging; at 100 µg/mL,44.54 ± 0.18%
same,Scavenging activity DPPH IC50,DPPH radical scavenging,6.24 ± 0.01 µg/mL
same,inhibition at 100 µg/mL,"COX-1; at 100 µg/mL, read-out: COX-1 Inhib. (%)",31.61 ± 0.18%
same,IC50,COX-1,27.1 µM
same,inhibition at 100 µg/mL,[1],26.11 ± 0.13%
same,viability at 31.13 µg/mL,[2]; Caco-2,86%
same,viability at 62.5 µg/mL,[2]; Caco-2,72.2%
same,viability at 125 µg/mL,[2]; Caco-2,48.6%
same,viability at 250 µg/mL,[2]; Caco-2,38.4%
same,viability at 500 µg/mL,[2]; Caco-2,18.6%
same,IC50,"[2]; Caco-2, 48 h, read-out: Median Inhibitory Concentration (IC50) Caco-2",115 ± 3.25 µg/mL
same,Bcl-2,Bcl-2 in BJ-1 cells,4.98 ± 0.03 ng/mL
same,Bcl-2,Bcl-2 in HepG-2 cells,7.32 ± 0.10 ng/mL

# From paper PMC11859031, “Assessment of the In Vitro Biological Activities of Schiff Base-Synthesized Copper Oxide Nanoparticles as an Anti-Diabetic, Anti-Alzheimer, and Anti-Cancer Agent” (Pharmaceutics, 2025)
